Data from the supplement of paper PMC10307832.

Key:
Assay in all cases: relative viability (nuclei count vs DMSO), 5 days (fraction); higher = more cells survive
AZ505 + Palbociclib = compound: C1CCC(CC1)N(CCNCCC2=C3C(=C(C=C2)O)NC(=O)CO3)C(=O)CCNCCC4=CC(=C(C=C4)Cl)Cl [AZ505] + CC(=O)c1c(C)c2cnc(Nc3ccc(N4CCNCC4)cn3)nc2n(C2CCCC2)c1=O [Palbociclib] (partner 0.5 µM)
Summary of the method: (§1)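 One day after seeding in 1536-well plates, lung cancer cell lines were dosed by pin tool. Dosing was either single-drug or a fixed anchor-drug dose plus five library-drug doses (not always all listed) in √10 steps. After 5 days, nuclei were stained in one fix-and-stain step and counted on 4× images, and relative viability is the nuclei count of treated wells over that of vehicle wells, given as the median of duplicate plates.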

Dactolisib + Palbociclib = compound: Cn1c(=O)n(-c2ccc(C(C)(C)C#N)cc2)c2c3cc(-c4cnc5ccccc5c4)ccc3ncc21 [Dactolisib] + CC(=O)c1c(C)c2cnc(Nc3ccc(N4CCNCC4)cn3)nc2n(C2CCCC2)c1=O [Palbociclib] (partner 0.5 µM)
Summary of the method: as §1

AZ505 + Luminespib = compound: C1CCC(CC1)N(CCNCCC2=C3C(=C(C=C2)O)NC(=O)CO3)C(=O)CCNCCC4=CC(=C(C=C4)Cl)Cl [AZ505] + CCNC(=O)c1noc(-c2cc(C(C)C)c(O)cc2O)c1-c1ccc(CN2CCOCC2)cc1 [Luminespib] (partner 0.01 µM)
Summary of the method: as §1

AZ505 + AZD7762 = compound: C1CCC(CC1)N(CCNCCC2=C3C(=C(C=C2)O)NC(=O)CO3)C(=O)CCNCCC4=CC(=C(C=C4)Cl)Cl [AZ505] + NC(=O)Nc1cc(-c2cccc(F)c2)sc1C(=O)N[C@H]1CCCNC1 [AZD7762] (partner 0.2 µM)
Summary of the method: as §1

Row | Cell Line | relative viability (AZ505 + Palbociclib; first compound 0.08 µM) | relative viability (AZ505 + Palbociclib; first compound 0.253 µM) | relative viability (AZ505 + Palbociclib; first compound 0.8 µM) | relative viability (AZ505 + Palbociclib; first compound 2.53 µM) | relative viability (AZ505 + Palbociclib; first compound 8 µM) | relative viability (Dactolisib + Palbociclib; first compound 0.002 µM) | relative viability (Dactolisib + Palbociclib; first compound 0.006325 µM) | relative viability (Dactolisib + Palbociclib; first compound 0.02 µM) | relative viability (Dactolisib + Palbociclib; first compound 0.06325 µM) | relative viability (Dactolisib + Palbociclib; first compound 0.2 µM) | relative viability (AZ505 + Luminespib; first compound 0.08 µM) | relative viability (AZ505 + Luminespib; first compound 0.253 µM) | relative viability (AZ505 + Luminespib; first compound 0.8 µM) | relative viability (AZ505 + Luminespib; first compound 2.53 µM) | relative viability (AZ505 + Luminespib; first compound 8 µM) | relative viability (AZ505 + AZD7762; first compound 0.08 µM) | relative viability (AZ505 + AZD7762; first compound 0.253 µM) | relative viability (AZ505 + AZD7762; first compound 0.8 µM) | relative viability (AZ505 + AZD7762; first compound 8 µM) | relative viability (AZ505 + AZD7762; first compound 2.53 µM)
1 | SK-LU-1 | 0.319 | 0.343 | 0.292 | 0.322 | 0.336 | 0.335 | 0.393 | 0.337 | 0.268 | 0.281 | 0.201 | 0.203 | 0.18 | 0.18 | 0.176 | – | – | – | – | –
2 | LU99A | 0.363 | 0.447 | 0.403 | – | 0.367 | 0.419 | 0.37 | 0.297 | 0.216 | 0.181 | – | 0.268 | 0.212 | 0.175 | 0.286 | 0.341 | 0.54 | 0.358 | 0.361 | –
3 | NCI-H1355 | 0.369 | 0.398 | 0.396 | 0.367 | 0.374 | 0.406 | 0.368 | 0.352 | 0.255 | 0.174 | 0.672 | 0.701 | 0.655 | 0.675 | 0.718 | 0.677 | 0.474 | 0.757 | 0.858 | 0.689
4 | HCC-78 | 0.452 | 0.409 | 0.4 | 0.435 | 0.434 | 0.46 | 0.453 | 0.479 | 0.475 | 0.441 | – | – | – | – | – | – | – | 0.75 | 0.558 | 0.719
5 | NCI-H1563 | – | – | – | – | – | – | – | – | – | – | 0.478 | 0.504 | 0.522 | 0.473 | 0.508 | – | – | – | – | –
6 | HCC-15 | 0.78 | 0.714 | 0.686 | 0.847 | 0.739 | 0.778 | 0.723 | 0.715 | 0.471 | 0.28 | 0.264 | 0.323 | 0.346 | 0.312 | 0.302 | 0.711 | 1.24 | 1.24 | 1.42 | 1.13
7 | EKVX | – | 0.365 | 0.378 | 0.372 | 0.389 | 0.431 | 0.386 | 0.324 | 0.241 | 0.197 | 0.873 | 0.615 | 0.831 | 0.846 | 0.91 | – | 0.629 | 0.849 | 0.746 | 0.678
8 | NCI-H2087 | 0.225 | 0.27 | 0.312 | 0.22 | 0.197 | 0.275 | 0.232 | 0.221 | 0.172 | 0.142 | 0.171 | 0.191 | 0.217 | 0.154 | 0.238 | 1.22 | 1.24 | 1.35 | 1.24 | 1.15
9 | LK-2 | 0.487 | 0.73 | 0.768 | 0.792 | 0.898 | 0.513 | 0.653 | 0.491 | 0.212 | 0.167 | 0.189 | 0.175 | 0.172 | 0.225 | 0.176 | 0.512 | 0.264 | 0.597 | 0.403 | 0.342
